Earlier results on two compounds are cited in publication PMC4876928 (Clinical cancer research : an official journal of the …, 2016).

The subject of the series is malignant pleural mesothelioma. The following applies: MPM previously treated with chemotherapy, second-line; cited from earlier work.

For `Nc1ccn([C@@H]2O[C@H](CO)[C@@H](O)C2(F)F)c(=O)n1` [gemcitabine], the response rate is reported as 2%.

On to `CCC1=C[C@@H]2CN(C1)Cc1c([nH]c3ccccc13)[C@@](C(=O)OC)(c1cc3c(cc1OC)N(C)[C@H]1[C@@](O)(C(=O)OC)[C@H](OC(C)=O)[C@]4(CC)C=CCN5CC[C@]31[C@@H]54)C2` [vinorelbine], for which the response rate was 2%.
